Earlier results, collected in Sander's compilation of Henry's law constants (doi:10.1063/1.555654).

Assay: Henry solubility constant Hcp at 298.15 K (mol/(m3 Pa))
Conditions: reference: Mackay and Shiu (1981); cited value

Row | Compound | Henry solubility constant Hcp
1 | ClCC(Cl)(Cl)Cl [1,1,1,2-tetrachloroethane] | 0.0036
2 | Clc1ccc(C(c2ccc(Cl)cc2)C(Cl)(Cl)Cl)cc1 [1,1,1-trichloro-2,2-bis-(4-chlorophenyl)-ethane] | 0.19
3 | CC(Cl)(Cl)Cl [1,1,1-trichloroethane] | 0.00036
4 | ClC(Cl)C(Cl)Cl [1,1,2,2-tetrachloroethane] | 0.021
5 | ClCC(Cl)Cl [1,1,2-trichloroethane] | 0.0083
6 | CC1CCC(C)(C)C1 (stereo unspecified) [1,1,3-trimethylcyclopentane] | 6.3e-06
7 | Cc1cccc(C)c1C [1,2,3-trimethylbenzene] | 0.0031
8 | Cc1ccc(C)c(C)c1 [1,2,4-trimethylbenzene] | 0.0017
9 | Cc1ccccc1C [1,2-dimethylbenzene] | 0.002
10 | Cc1cc(C)cc(C)c1 [1,3,5-trimethylbenzene] | 0.0017
11 | C=CC=C [1,3-butadiene] | 0.00013
12 | Clc1cccc(Cl)c1 [1,3-dichlorobenzene] | 0.0028
13 | Cc1cccc(C)c1 [1,3-dimethylbenzene] | 0.0014
14 | Clc1ccc(Cl)cc1 [1,4-dichlorobenzene] | 0.0063
15 | Cc1ccc(C)cc1 [1,4-dimethylbenzene] | 0.0014
16 | C#CCC [1-butyne] | 0.00052
17 | CC(C)CCl [1-chloro-2-methylpropane] | 0.0083
18 | CCc1ccc(C)cc1 [1-ethyl-4-methylbenzene] | 0.002
19 | CCc1cccc2ccccc12 [1-ethylnaphthalene] | 0.026
20 | Cc1ccc(C(C)C)cc1 [1-methyl-4-(1-methylethyl)-benzene] | 0.0013
21 | Cc1cccc2ccccc12 [1-methylnaphthalene] | 0.022
22 | C=CCCCCCC [1-octene] | 1e-05
23 | C=CCCC [1-pentene] | 2.5e-05
24 | CC(C)CC(C)(C)C [2,2,4-trimethylpentane] | 3e-06
25 | CC(C)CCC(C)(C)C [2,2,5-trimethylhexane] | 2.9e-06
26 | CCC(C)(C)C [2,2-dimethylbutane] | 5.8e-06

Row | Compound | Henry solubility constant Hcp
27 | CCCC(C)(C)C [2,2-dimethylpentane] | 3.1e-06
28 | CC(C)C(C)C(C)C [2,3,4-trimethylpentane] | 5.3e-06
29 | c1ccc2c(c1)Cc1ccccc1-2 [2,3-benzindene] | 0.12
30 | C=C(Cl)CCl [2,3-dichloropropene] | 0.0028
31 | CC(C)C(C)C [2,3-dimethylbutane] | 7.7e-06
32 | CCC(C)C(C)C (stereo unspecified) [2,3-dimethylpentane] | 5.7e-06
33 | CC(C)CC(C)C [2,4-dimethylpentane] | 3.3e-06
34 | CCc1ccc2ccccc2c1 [2-ethylnaphthalene] | 0.012
35 | C=CC(=C)C [2-methyl-1,3-butadiene] | 0.00013
36 | C=C(C)CCC [2-methyl-1-pentene] | 3.6e-05
37 | CCC(C)C [2-methylbutane] | 7.2e-06
38 | CCCCC(C)C [2-methylhexane] | 2.9e-06
39 | CCCC(C)C [2-methylpentane] | 5.9e-06
40 | CC(C)C [2-methylpropane] | 8.3e-06
41 | CCC(C)(C)CC [3,3-dimethylpentane] | 5.4e-06
42 | C=CCCl [3-chloro-1-propene] | 0.00091
43 | C=CC(C)C [3-methyl-1-butene] | 1.8e-05
44 | CCCCC(C)CC (stereo unspecified) [3-methylheptane] | 2.7e-06
45 | CCCC(C)CC (stereo unspecified) [3-methylhexane] | 4.2e-06
46 | CCC(C)CC [3-methylpentane] | 5.8e-06
47 | C=CCC(C)C [4-methyl-1-pentene] | 1.6e-05
48 | CCCCC(C)CCC (stereo unspecified) [4-methyloctane] | 1e-06
49 | CC(C)(C)c1ccccc1 [(1,1-dimethylethyl)-benzene] | 0.00083
50 | CCC(C)c1ccccc1 (stereo unspecified) [(1-methylpropyl)-benzene] | 0.00071
51 | CC(C)Cc1ccccc1 [(2-methylpropyl)-benzene] | 0.0003
52 | c1cc2c3c(cccc3c1)CC2 [acenaphthene] | 0.042

Row | Compound | Henry solubility constant Hcp
53 | ClC1=C(Cl)[C@]2(Cl)[C@H]3[C@H]([C@@H]4C=C[C@H]3C4)[C@@]1(Cl)C2(Cl)Cl [aldrin] | 0.36
54 | c1ccc2cc3ccccc3cc2c1 [anthracene] | 0.17
55 | c1ccccc1 [benzene] | 0.0018
56 | c1ccc2c(c1)-c1cccc3cccc-2c13 [benzo[jk]fluorene] | 0.0045
57 | c1ccc(-c2ccccc2)cc1 [biphenyl] | 0.036
58 | Brc1ccccc1 [bromobenzene] | 0.0048
59 | CCCC [butane] | 1e-05
60 | CCCCc1ccccc1 [butylbenzene] | 0.00077
61 | Clc1ccccc1 [chlorobenzene] | 0.0029
62 | CCCl [chloroethane] | 0.005
63 | C[C@@H]1CCCC[C@@H]1C [cis-1,2-dimethylcyclohexane] | 2.8e-05
64 | Cl/C=C\CCl [cis-1,3-dichloropropene] | 0.0042
65 | C1CCCCC1 [cyclohexane] | 5.6e-05
66 | C1CCCC1 [cyclopentane] | 5.4e-05
67 | CCCCCCCCCC [decane] | 1.4e-06
68 | BrCBr [dibromomethane] | 0.031
69 | ClCCl [dichloromethane] | 0.0038
70 | ClC1=C(Cl)[C@]2(Cl)[C@@H]3[C@@H]4C[C@@H]([C@H]5O[C@@H]45)[C@@H]3[C@@]1(Cl)C2(Cl)Cl [dieldrin] | 0.91
71 | CC(C)(C)C [dimethylpropane] | 2.7e-06
72 | CCCCCCCCCCCC [dodecane] | 1.3e-06
73 | C=C [ethene] | 4.6e-05
74 | CCc1ccccc1 [ethylbenzene] | 0.0013
75 | Fc1ccccc1 [fluorobenzene] | 0.0016
76 | CCCCCCC [heptane] | 4.3e-06
77 | CCCCCC [hexane] | 5.9e-06
78 | Ic1ccccc1 [iodobenzene] | 0.0077

Row | Compound | Henry solubility constant Hcp
79 | COP(=S)(Oc1cc(Cl)c(Br)cc1Cl)c1ccccc1 (stereo unspecified) [leptophos] | 3.7
80 | Cc1ccccc1 [methylbenzene] | 0.0015
81 | CC1CCCCC1 [methylcyclohexane] | 2.5e-05
82 | CC1CCCC1 [methylcyclopentane] | 2.7e-05
83 | COP(=S)(OC)Oc1ccc([N+](=O)[O-])cc1 [methylparathion] | 50
84 | c1ccc2ccccc2c1 [naphthalene] | 0.023
85 | CCCCCCCCC [nonane] | 2e-06
86 | CCCCCCCC [octane] | 3.3e-06
87 | ClC(Cl)C(Cl)(Cl)Cl [pentachloroethane] | 0.0045
88 | CCCCC [pentane] | 8e-06
89 | CCCCCc1ccccc1 [pentylbenzene] | 0.0017
90 | CCCCCC1CCCC1 [pentylcyclopentane] | 5.4e-06
91 | c1ccc2c(c1)ccc1ccccc12 [phenanthrene] | 0.25
92 | C=CC [propene] | 4.7e-05
93 | CCCc1ccccc1 [propylbenzene] | 0.0014
94 | C#CC [propyne] | 0.0009
95 | ClC(Cl)=C(Cl)Cl [tetrachloroethene] | 0.00043
96 | ClC(Cl)(Cl)Cl [tetrachloromethane] | 0.0005
97 | Cl/C=C/CCl [trans-1,3-dichloropropene] | 0.0056
98 | C[C@H]1CC[C@H](C)CC1 [trans-1,4-dimethylcyclohexane] | 1.1e-05
99 | C/C=C/CCCC [trans-2-heptene] | 2.4e-05
100 | BrC(Br)Br [tribromomethane] | 0.016
101 | ClC1C(Cl)C(Cl)C(Cl)C(Cl)C1Cl (stereo unspecified) [γ-1,2,3,4,5,6-hexachlorocyclohexane] | 3.1
